A word on the logP: it is a log measure of how a compound divides between an organic and an aqueous phase. Read a low logP as lower lipophilicity. With `Nc1ccc2nc(-c3ccc(O)cc3)sc2c1I`, the logP turned out to be 1.6. Regarding `COCOc1ccc2nc(-c3ccc(N)cc3)sc2c1`, the logP was 1.86. `CNc1ccc(-c2nc3ccc(OC)cc3s2)cc1I` displayed a logP of 3.8.

For `COC(=O)c1ccc2nc(-c3ccc(N)cc3)sc2c1`, the logP amounted to 2.07. In the case of `COc1ccc2nc(-c3ccc(N)cc3)sc2c1` it was 1.87.

`COc1ccc(-c2nc3ccc(O)c(I)c3s2)cc1` returned a lipophilicity (logP) of 2.49. Compound `CNc1ccc(-c2nc3ccc(Br)cc3s2)cc1` registered a logP of 3.64. As for `Nc1ccc(-c2nc3ccc(Br)cc3s2)cc1I`, the figure is 4.11. In the case of `Nc1ccc(-c2nc3ccc([N+](=O)[O-])cc3s2)cc1I` it was 3.33; in that of `CNc1ccc(-c2nc3ccc([N+](=O)[O-])cc3s2)cc1`, 2.96; in that of `COc1ccc(-c2nc3ccc(O)cc3s2)cc1`, 1.75. The compound `COc1ccc2nc(-c3ccc(O)c(I)c3)sc2c1` returned a logP of 2.31. As for `Oc1ccc(-c2nc3ccccc3s2)cc1I`, the figure is 2.22. As to `Oc1ccc(-c2nc3ccc(O)c(I)c3s2)cc1`, the logP turned out to be 1.01.

`COCOc1ccc2nc(-c3ccc(N)c(I)c3)sc2c1` yielded a logP of 3.03. `Nc1ccc(-c2nc3ccccc3s2)cc1`: the lipophilicity (logP) is 1.98.

On to `CNc1ccc(-c2nc3ccccc3s2)cc1I`, for which the log partition coefficient (logP) is 3.9. As for `CNc1ccc(-c2nc3ccc(O)cc3s2)cc1I`, the figure is 2.35. In the case of `COc1ccc2nc(-c3ccc(O)cc3)sc2c1` it was 1.8. In the case of `Oc1ccc(-c2nc3ccccc3s2)cc1` it was 1.86. `COc1ccc(-c2nc3ccc(N)cc3s2)cc1` yielded a logP of 1.76. In the case of `COc1ccc2nc(-c3ccc(N)c(I)c3)sc2c1` it was 3.08; in that of `Nc1ccc(-c2nc3ccc(Br)cc3s2)cc1`, 2.87.

`CNc1ccc(-c2nc3ccc([N+](=O)[O-])cc3s2)cc1I` came in with a logP of 4.08.

As to `Nc1ccc(-c2nc3ccc(O)cc3s2)cc1I`, the logP amounted to 1.65. As to `CNc1ccc(-c2nc3ccc(OC)cc3s2)cc1`, the logP is 2.58. Compound `CNc1ccc(-c2nc3ccc(Br)cc3s2)cc1I` had a log partition coefficient (logP) of 4.86.

In turn, `COC(=O)c1ccc2nc(-c3ccc(N)c(I)c3)sc2c1` came in with a logP of 3.29. `Oc1ccc2nc(-c3ccc(O)c(I)c3)sc2c1` had a logP of 1.09.

On to `Nc1ccc(-c2nc3ccccc3s2)cc1I`, for which the logP was found to be 3.17. For `Nc1ccc(-c2nc3ccc([N+](=O)[O-])cc3s2)cc1`, the logP stood at 2.21.

Compound `COc1ccc(-c2nc3ccc(N)c(I)c3s2)cc1` showed a logP of 2.95.

These data come from the SangsterLogP compilation.
